Source: patent US10254273B2, “Method and kit for assessment of sodium channel-related anti- or pro-arrhythmic potential of compounds” (RUPRECHT-KARLS-UNIVERSITAET HEIDELBERG, priority 2014, dated 2019)

Target: T1, cardiac sodium channels Nav1.5 in the intercalated discs of cardiomyocytes (Mus musculus, UniProt Q9JJV9)
T1 construct: The heart was harvested and perfused in the Langendorff system; endogenous in cells; host or cells: primary adult mouse cardiomyocytes isolated from heart by Langendorff perfusion
T1 sequence (Q9JJV9 whole entry, the tested form may be a part): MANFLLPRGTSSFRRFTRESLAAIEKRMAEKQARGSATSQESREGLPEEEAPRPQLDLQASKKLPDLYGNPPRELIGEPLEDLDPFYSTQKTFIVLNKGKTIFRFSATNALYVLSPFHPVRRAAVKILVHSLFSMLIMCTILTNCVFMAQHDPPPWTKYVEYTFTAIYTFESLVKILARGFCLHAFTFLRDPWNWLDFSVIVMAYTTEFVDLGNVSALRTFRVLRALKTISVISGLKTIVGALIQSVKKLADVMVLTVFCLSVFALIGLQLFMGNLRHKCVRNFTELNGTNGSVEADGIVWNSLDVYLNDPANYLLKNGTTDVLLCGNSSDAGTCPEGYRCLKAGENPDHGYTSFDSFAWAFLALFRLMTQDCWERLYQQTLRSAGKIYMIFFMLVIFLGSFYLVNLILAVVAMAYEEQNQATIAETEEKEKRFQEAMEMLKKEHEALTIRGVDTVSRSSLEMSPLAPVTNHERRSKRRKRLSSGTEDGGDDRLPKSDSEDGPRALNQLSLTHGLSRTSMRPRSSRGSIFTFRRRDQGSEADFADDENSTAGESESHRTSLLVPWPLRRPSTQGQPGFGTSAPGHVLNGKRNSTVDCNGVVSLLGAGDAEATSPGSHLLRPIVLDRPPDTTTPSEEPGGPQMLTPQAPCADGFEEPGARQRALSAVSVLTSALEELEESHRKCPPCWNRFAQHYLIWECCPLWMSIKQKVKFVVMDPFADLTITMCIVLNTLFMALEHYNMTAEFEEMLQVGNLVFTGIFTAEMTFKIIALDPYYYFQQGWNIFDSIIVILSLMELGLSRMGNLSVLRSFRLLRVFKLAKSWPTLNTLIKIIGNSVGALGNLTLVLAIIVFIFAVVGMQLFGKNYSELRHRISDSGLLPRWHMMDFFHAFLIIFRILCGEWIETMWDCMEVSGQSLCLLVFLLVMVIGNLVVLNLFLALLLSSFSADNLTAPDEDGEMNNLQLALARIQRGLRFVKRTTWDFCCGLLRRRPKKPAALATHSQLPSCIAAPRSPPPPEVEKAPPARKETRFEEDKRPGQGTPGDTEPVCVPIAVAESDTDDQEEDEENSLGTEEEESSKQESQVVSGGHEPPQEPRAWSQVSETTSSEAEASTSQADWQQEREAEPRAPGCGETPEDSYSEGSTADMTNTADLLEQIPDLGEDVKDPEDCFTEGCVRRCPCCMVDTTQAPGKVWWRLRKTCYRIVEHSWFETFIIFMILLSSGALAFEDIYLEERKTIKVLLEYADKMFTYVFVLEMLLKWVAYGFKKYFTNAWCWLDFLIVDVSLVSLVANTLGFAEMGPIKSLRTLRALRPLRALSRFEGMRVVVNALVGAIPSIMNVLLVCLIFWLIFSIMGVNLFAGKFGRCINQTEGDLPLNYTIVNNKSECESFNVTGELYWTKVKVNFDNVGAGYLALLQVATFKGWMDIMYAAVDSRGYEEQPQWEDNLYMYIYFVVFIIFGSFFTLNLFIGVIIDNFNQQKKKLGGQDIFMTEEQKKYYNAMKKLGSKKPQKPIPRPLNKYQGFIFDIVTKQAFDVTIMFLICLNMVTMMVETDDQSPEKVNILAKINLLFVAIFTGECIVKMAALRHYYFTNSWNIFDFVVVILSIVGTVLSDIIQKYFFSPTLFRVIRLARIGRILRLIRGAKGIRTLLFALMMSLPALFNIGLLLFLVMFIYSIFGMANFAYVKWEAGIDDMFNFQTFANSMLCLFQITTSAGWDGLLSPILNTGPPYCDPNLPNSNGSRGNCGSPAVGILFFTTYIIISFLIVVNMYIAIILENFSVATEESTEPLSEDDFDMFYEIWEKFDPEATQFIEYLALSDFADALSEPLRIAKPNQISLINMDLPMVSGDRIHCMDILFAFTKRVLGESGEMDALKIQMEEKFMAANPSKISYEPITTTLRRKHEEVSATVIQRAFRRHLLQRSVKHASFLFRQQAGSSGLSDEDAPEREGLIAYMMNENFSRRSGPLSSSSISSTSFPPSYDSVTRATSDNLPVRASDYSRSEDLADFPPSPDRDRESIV
Experiment: Nav1.5 density change in intercalated discs of cardiomyocytes (immunocytochemistry, confocal microscopy)
Type: cell-based
Details: test compound at a concentration of 100 μM or higher vs. untreated sample, p<0.05
Protocol: Briefly, the mice were injected with 200 IU heparin i.p. prior to sacrifice. The thoracic chamber was opened and a cannula with perfusion solution was inserted from the atria. The heart was harvested and perfused in the Langendorff system with Perfusion Buffer at 37° C. for 5 min, followed by Digestion Buffer until the heart muscle was pale and some signs of extracellular matrix dissociation appeared. The heart was perfused for additional 5 min with Perfusion Buffer to stop the dissociation. The cardiomyocytes were mechanically dissociated in TB-A and then plated on ECM-coated (Sigma cat. no. E-1270) petri dish (Zell-Kontakt cat. no. 5160-30). […]
Confocal images of red and green immunofluorescence of stained cardiomyocytes were acquired, e.g. on a Leica confocal laser scanning unit TCS NT, which is coupled to a Leica DM IRB microscope. […] Fluorescence signals of Nav1.5 staining were recorded at 20%, 50% and 80% laser intensity, and fluorescence signals of cadherin was recorded at 80% laser intensity to generate the Region of Interest (ROI) (modified from Yampolsky et al., 2010, a). All images were digitally saved and later processed with Image) (NIH, Bethesda, Md., USA) software using proprietary quantification methods and standard Image) plug-ins.
ROI were set as defined by the fluorescence signals of the cadherin staining, which represented the intercalated discs. […]

Q: For `O=C(NCC1CCCCN1)c1cc(OCC(F)(F)F)ccc1OCC(F)(F)F` (stereo not shown) [flecainide], which “change of the Nav1.5 density in comparison to the untreated sample” value is on record?
A: The value was “significant change”.
